Test results from patent publication US20040054014A1, “Method and pharmaceutical compositions forthe treatment of cancer” (priority 2002, published 2004).

Experiments:
C-26 cells [1] = assay: Solid tumor model (inherent MDR); assay type: in vivo, mice; settings: for solid tumor volume with time, single agent: fluoxetine 0.04 mg/kg daily oral alone, MMC or DOX 5 mg/kg i.v. alone
Experimental: In the solid tumor model, MDR-inherent C-26 cells were injected into the animal's right-hind footpad.
In the solid tumor model, Mitomycin C (MMC) and Doxorubicin (DOX) were tested separately, each at a dose of 5 mg/kg body.

B16F10 cells = assay: Lung metastasis model (inherent MDR); assay type: in vivo, mice; settings: for lung metastatic burden (lung weight, number of metastasis), single agent: Doxorubicin 10 mg/kg alone, chemosensitizer 0.04 mg/kg daily oral alone
P388/ADR cells [2] = assay: Intracellular accumulation of Doxorubicin, confocal microscopy (system II); assay type: cell-based, murine
Experimental: (§1) At the end of the incubation time, the cells were washed 6 times with PBS, fixed with a mounting medium (Mounting medium with anti-fading agents, Biomeda corp., CA, USA) and were analysed by Confocal microscopy (Zeiss LSM 510). Excitation was at 488 nm and emission was measured using a band pass filter of 505-550 nm.

P388/WT cell line = assay: MTT cell viability, non-resistant cell line; assay type: cell-based, murine
Experimental: (§2) After 4 hours incubation, the treatment media was replaced with CS- and CT-free media and the experiment was terminated 24 hours later.

P388/ADR cell line = assay: MTT cell viability, MDR-acquired cell line; assay type: cell-based, murine; settings: for increase in cell death, combined treatment with DOX: DOX (1, 5, 10 μg/ml) + 5 μM chemosensitizer
Experimental: as §2

C6 cells = settings: cells loaded with 0.1 μg/ml DOX alone
[3] = Animals' body weight (treatment toxicity) in P388/WT and P388/ADR models; assay type: in vivo, mice; settings: fluoxetine 0.04 mg/kg daily oral only; DOX 3 mg/kg days 1, 5, 9; both tumor models
Experimental: (§3) P388/WT (non-resistant) or P388/ADR (MDR-acquired) murine leukemia cells were propagated in the peritoneum of BDF1 female mice by weekly transfer of 0.5 ml of peritoneal fluid containing 5×10^5 cells, to generate an intraperitoneal ascites model.
(§4) In both models, Doxorubicin (DOX) was tested. Doses of 3 mg/kg body were injected into the lateral tail vain, 1, 5 and 9 days after tumor inoculation.
(§5) Comparative experiments were run in parallel with the sensitive, non-resistant P388/WT model and the corresponding, MDR-acquired P388/ADR model. […] A group of untreated healthy animals was served as a control group. […] The fluoxetine was given in the drinking water, from tumor inoculation and on. Doxorubicin was injected into the lateral tail vain 1, 5 and 9 days post tumor inoculation. The effects of the various treatments on tumor response were monitored through animals' survival and animals' body weight. The latter was monitored in order to assess the treatment toxicity.

[4] = system: PANC-1, C6, MCF-7, U20S and HT1080 cell lines; settings: 48 hours; for reduction in cell survival, drug alone: non-resistant cell lines, 0.1 μg/ml DOX, 0.3 μg/ml VIN
C-26 cells [5] = assay: Intracellular accumulation of Rhodamine-123, confocal microscopy (system II); assay type: cell-based, murine; settings: 5 μM Rhodamine-123 + […] μM chemosensitizer, monolayers
Experimental: as §1

P388/ADR cells [6] = assay: Intracellular accumulation of Rhodamine-123, flow cytometry (system I); assay type: cell-based, murine; settings: 5 μM Rhodamine-123 + […] μM chemosensitizer, suspended cells
Excerpt: The cells were thereafter analyzed for intracellular fluorescence, using a flow cytometer (Becton-Dickinson, USA). Excitation and emission were at 485 nm and 547 nm, respectively.

[7] = cited from earlier work
[8] = system: B16F10 and C-26 cell lines; settings: Mitomycin C 50 μg/ml or Doxorubicin 1.0 μg/ml with 15 μM fluoxetine
P388/ADR = assay: Intraperitoneal ascites model, MDR-acquired tumor, survival; assay type: in vivo, mice; settings: DOX 3 mg/kg + fluoxetine 0.04 mg/kg daily oral
P388/WT = assay: Intraperitoneal ascites model, non-resistant tumor, survival; assay type: in vivo, mice; settings: DOX 3 mg/kg + fluoxetine 0.04 mg/kg daily oral
Experimental: as §3, §4, §5

C6 and PANC-1 cells = system: C6 and PANC-1 cells; parameters: dose or concentration left out as unconfirmed; settings: […] μM fluoxetine alone, 24 hours
[9] = fluoxetine alone 1-20 μM, 4 hours then 20 hours CS-free media

COc1cccc2c1C(=O)c1c(O)c3c(c(O)c1C2=O)C[C@@](O)(C(=O)CO)C[C@@H]3O[C@H]1C[C@H](N)[C@H](O)[C@H](C)O1 [Doxorubicin]
solid tumor volume with time, single agent (C-26 cells [1]): increases fast and exponentially
lung metastatic burden (lung weight, number of metastasis), single agent (B16F10 cells): only a mild reduction in the metastatic burden
intracellular accumulation of doxorubicin alone (confocal images) (P388/ADR cells [2]; 5 μg/ml Doxorubicin alone): quite poor
cell death (P388/WT cell line; 0.5 μg/ml DOX alone): about 50%
cell death (P388/WT cell line; 5 μg/ml DOX alone): 100%
cell death (P388/ADR cell line; 5 μg/ml DOX alone): < 20%
cell death (P388/ADR cell line; doubled drug concentration (10 μg/ml DOX) alone): about 30%
time for complete depletion of intracellular DOX (C6 cells): ≤ 2 h
change in body weight, single agent [3]: minor weight decrease
reduction in cell survival, drug alone [4]: 50%

CO[C@@]12[C@H](COC(N)=O)C3=C(C(=O)C(C)=C(N)C3=O)N1C[C@@H]1N[C@@H]12 [Mitomycin C]
solid tumor volume with time, single agent (C-26 cells [1]): increases fast and exponentially

COc1ccc(CCN(C)CCCC(C#N)(c2ccc(OC)c(OC)c2)C(C)C)cc1OC (centres unmarked) [Verapamil]
intracellular accumulation of Rhodamine-123 (confocal images) (C-26 cells [5]): an increase in the intracellular level of Rhodamine-123
increase in cell death, combined treatment with DOX (P388/ADR cell line): modest increase in cell death
increase of intracellular Rhodamine-123 fluorescence vs chemosensitizer-free control (P388/ADR cells [6]): about 60%

CC[C@]1(O)C[C@@H]2CN(CCc3c([nH]c4ccccc34)[C@@](C(=O)OC)(c3cc4c(cc3OC)N(C)[C@H]3[C@@](O)(C(=O)OC)[C@H](OC(C)=O)[C@]5(CC)C=CCN6CC[C@]43[C@@H]65)C2)C1 [Vinblastine]
reduction in cell survival, drug alone [4]: 50%

CNCCC(Oc1ccc(C(F)(F)F)cc1)c1ccccc1 (centres unmarked) [fluoxetine, N-methyl 3-(p-trifluoromethylphenoxy)-3-phenylpropylamine]
survival prolonged vs saline, CS alone and CT alone (C-26 cells [1]; DOX+CS (DOX 5 mg/kg, fluoxetine 0.04 mg/kg daily oral)): 3 fold
survival prolonged vs saline, CS alone and CT alone (C-26 cells [1]; MMC+CS (MMC 5 mg/kg, fluoxetine 0.04 mg/kg daily oral)): 2 fold
solid tumor growth, combination therapy (C-26 cells [1]; fluoxetine 0.04 mg/kg daily oral + MMC or DOX 5 mg/kg): tumor growth is significantly slower
solid tumor volume with time, single agent (C-26 cells [1]): increases fast and exponentially
intracellular accumulation of Rhodamine-123 (confocal images) (C-26 cells [5]): substantially higher increase in the intracellular accumulation of Rhodamine-123
survival, CS alone (B16F10 cells; 75-days experiment): died rather early
survival, combination treatment (B16F10 cells; CS + Doxorubicin, 75-days experiment): long survivors
lung metastatic burden (lung weight, number of metastasis), single agent (B16F10 cells): highest metastatic burden
lung metastatic burden, combination treatment (B16F10 cells; chemosensitizer + Doxorubicin 10 mg/kg): substantial reduction
intracellular level of DOX (confocal images) (P388/ADR cells [2]; 5 μg/ml Doxorubicin + 5 μM fluoxetine, monolayers): substantial increase in the intracellular level of DOX
effect of combination treatment on level of cells death (P388/WT cell line; DOX with 5 μM fluoxetine vs DOX alone): had no effect on the level of cells death
effect on cells viability (P388/WT cell line; [9]): no effect on cells viability
safe, substantially side effect-free daily dose range [7]: 10-15 mg/M^2
increase in cell death, combined treatment with DOX (P388/ADR cell line): significant increase
increase in cell death as compared with Verapamil and CsA (P388/ADR cell line; DOX + 5 μM fluoxetine vs DOX + 5 μM Verapamil or CsA): 2-3 fold
effect on cells viability (P388/ADR cell line; [9]): no effect on cells viability
cell death, combination of the drug and fluoxetine [8]: 80-90%
increase of intracellular Rhodamine-123 fluorescence vs chemosensitizer-free control (P388/ADR cells [6]): about 200%
elongated life span, combination of fluoxetine and DOX (P388/ADR): more than 2 fold
animals' survival, combined DOX and fluoxetine (P388/WT): had no effect on animal's survival
change in body weight, single agent [3]: no weight loss
effect on cell survival (C6 and PANC-1 cells): does not affect cell survival at all
toxicity to the cells ([4]; fluoxetine alone, 0-15 μM): not toxic to the cells
